Assay results reported in patent US11440970B2, “Nicotine-binding antibodies” (priority 2017, dated 2022).
Like-named read-outs stand apart in the source and are kept apart here.

How the values were obtained:
[1] = mice; cited from earlier work
[2] = cited from earlier work
[3] = Non-GLP 4-week repeated high-dose toxicology study; assay type: in vivo; conditions: nicotine 1 mg/kg/day s.c. infusion for 28d; rats
Experimental: 8D1-IgG4 was dosed i.v. once weekly at 200 mg/kg.
Assessment of toxicity was based on mortality, clinical observations, and body weight during the course of the 28-day study, and at the end of study organ weights, gross anatomic pathology, hematology, serum clinical chemistry, and coagulation was performed. Histopathology of selected tissues (heart, liver, lung, kidney, spleen, skeletal muscle, brain, colon, stomach, ovary, and testis) is pending. Tissues were fixed immediately in formalin, and processed for embedding in paraffin, staining with H&E, and review by a veterinary pathologist.

[4] = rats; cited from earlier work

CN1CCC[C@H]1c1cccnc1 [nicotine]
LD50 [1]: 3 mg/kg | lethal dose (may be as high as) ([2]; human adult): 1.0 to 7.1 mg/kg | lethal dose (may be as high as) ([2]; in vivo): ≥ 500 mg | hematology finding in animals that received nicotine [3]: slight polychromasia | LD50 [4]: 50 mg/kg
